Test results from patent US7253187B2, “Heterocyclic inhibitors of ERK2 and uses thereof” (Vertex Pharmaceuticals Incorporated, priority 2001, dated 2007).

Tests used:
GSK-3β (AA 1–420) = molecular target: T1, GSK-3β (AA 1–420) (Homo sapiens, UniProt P49841); assay: GSK-3 inhibition assay (coupled enzyme system); type: biochemical; details: read-out: GSK3 Inhibitory Activity (Ki class)
T1 construct: GSK-3β (AA 1–420)
How it was run: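 ADP production read via pyruvate kinase/lactate dehydrogenase–coupled NADH consumption over 10 min at 30 °C. Ki derived from rates versus inhibitor concentration.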

ERK1 = ERK1 (Homo sapiens, UniProt P27361); assay: ERK1 inhibition assay (spectrophotometric coupled-enzyme assay); type: biochemical; details: read-out: inhibit ERK1 with an activity (Ki)
Sequence of ERK1 (P27361 whole entry, species assumed): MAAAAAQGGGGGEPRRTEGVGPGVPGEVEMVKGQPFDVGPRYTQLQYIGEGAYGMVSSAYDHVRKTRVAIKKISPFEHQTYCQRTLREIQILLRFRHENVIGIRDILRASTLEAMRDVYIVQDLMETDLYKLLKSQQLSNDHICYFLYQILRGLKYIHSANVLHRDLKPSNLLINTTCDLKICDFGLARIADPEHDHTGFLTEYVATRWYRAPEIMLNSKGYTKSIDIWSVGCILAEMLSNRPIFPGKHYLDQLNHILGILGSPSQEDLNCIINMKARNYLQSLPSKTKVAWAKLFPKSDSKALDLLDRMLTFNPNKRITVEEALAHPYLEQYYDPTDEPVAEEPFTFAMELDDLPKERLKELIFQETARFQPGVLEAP
Experimental: Compounds were assayed for the inhibition of ERK1 by a spectrophotometric coupled-enzyme assay (Fox et al (1998) Protein Sci 7, 2249). In this assay, a fixed concentration of activated ERK1 (20 nM) was incubated with various concentrations of the compound in DMSO (2.0%) for 10 min. at 30° C. in 0.1 M HEPES buffer, pH 7.6, containing 10 mM MgCl2, 2.5 mM-phosphoenolpyruvate, 200 μM NADH, 30 μg/mL pyruvate kinase, 10 μg/mL lactate dehydrogenase, and 150 μM erktide peptide. The reaction was initiated by the addition of 140 μM ATP (20 μL). The rate of decrease of absorbance at 340 nm was monitored. The Ki was evaluated from the rate data as a function of inhibitor concentration.

ERK2 = ERK2 (Homo sapiens, UniProt P28482); assay: ERK2 inhibition assay (spectrophotometric coupled-enzyme assay); type: biochemical; details: read-out: ERK2 Inhibitory Activity (Ki class D-F)
Sequence of ERK2 (P28482 whole entry): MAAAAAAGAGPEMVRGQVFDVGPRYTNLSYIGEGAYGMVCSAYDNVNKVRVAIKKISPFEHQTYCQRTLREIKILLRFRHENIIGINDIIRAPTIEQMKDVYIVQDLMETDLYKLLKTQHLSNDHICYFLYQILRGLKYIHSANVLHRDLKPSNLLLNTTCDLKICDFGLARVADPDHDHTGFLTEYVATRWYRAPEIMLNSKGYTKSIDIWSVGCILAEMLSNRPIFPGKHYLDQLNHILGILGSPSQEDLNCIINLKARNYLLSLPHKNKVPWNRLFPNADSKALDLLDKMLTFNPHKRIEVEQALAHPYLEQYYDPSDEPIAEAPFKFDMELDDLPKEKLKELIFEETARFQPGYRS
Experimental: The IC50 was evaluated from the rate data as a function of inhibitor concentration. […] The compound numbers correspond to the compound numbers in Table 1.

Aurora-2 = molecular target: T2, Aurora-2 (Homo sapiens, UniProt O14965); assay: Aurora-2 inhibition assay (coupled enzyme assay); type: biochemical
T2 sequence (O14965 1-403): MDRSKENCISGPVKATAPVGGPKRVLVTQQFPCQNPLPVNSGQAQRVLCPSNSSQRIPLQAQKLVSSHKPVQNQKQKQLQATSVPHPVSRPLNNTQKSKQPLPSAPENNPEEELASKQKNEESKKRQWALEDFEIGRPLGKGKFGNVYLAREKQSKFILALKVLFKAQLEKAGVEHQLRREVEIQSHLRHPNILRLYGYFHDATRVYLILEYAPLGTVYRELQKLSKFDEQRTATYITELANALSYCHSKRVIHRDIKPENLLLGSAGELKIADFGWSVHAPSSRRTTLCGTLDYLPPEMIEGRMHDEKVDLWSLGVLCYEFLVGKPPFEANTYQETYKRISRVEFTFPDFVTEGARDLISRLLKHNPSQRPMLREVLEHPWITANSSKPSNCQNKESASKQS
Experimental: Compounds were screened in the following manner for their ability to inhibit Aurora-2 using a standard coupled enzyme assay (Fox et al (1998) Protein Sci 7, 2249).
To an assay stock buffer solution containing 0.1M HEPES 7.5, 10 mM MgCl2, 1 mM DTT, 25 mM NaCl, 2.5 mM phosphoenolpyruvate, […], 30 mg/ml pyruvate kinase, 10 mg/ml lactate dehydrogenase, […], and 800 μM peptide (LRRASLG, American Peptide, Sunnyvale, Calif.) was added a DMSO solution of a compound of the present invention to a final concentration of 30 μM. The resulting mixture was incubated at 30° C. for 10 min. The reaction was initiated by the addition of 10 μL of Aurora-2 stock solution to give a final concentration of 70 nM in the assay. The rates of reaction were obtained by monitoring absorbance at 340 nm over a 5 minute read time at 30° C. using a BioRad Ultramark plate reader (Hercules, Calif.). The Ki values were determined from the rate data as a function of inhibitor concentration.

[1] = tested on: Colon cancer cells (HT-29 cell line); assay: ERK2 inhibition: cell proliferation assay (3H-thymidine uptake); type: cell-based; details: Homo sapiens, 3 days
Experimental: Compounds may be assayed for the inhibition of ERK2 by a cell proliferation assay. […] Colon cancer cells (HT-29 cell line) are added to each of 84-wells of a 96 well plate at a seeding density of 10,000 cells/well/150 μL. The cells are allowed to attach to the plate by incubating at 37° C. for 2 hours. […] The test compound solution (50 μL) is added to each of 72 cell-containing wells. To the 12 remaining cell-containing wells, only complete media (200 μL) is added to form a control group in order to measure maximal proliferation. To the remaining 12 empty wells, complete media is added to form a vehicle control group in order to measure background. The plates are incubated at 37° C. for 3 days. A stock solution of ^3H-thymidine (1 mCi/mL, New England Nuclear, Boston, Mass.) is diluted to 20 μCi/mL in RPMI medium then 20 μL of this solution is added to each well. The plates are further incubated at 37° C. for 8 hours then harvested and analyzed for ^3H-thymidine uptake using a liquid scintillation counter.

CDK-2/Cyclin A = CDK-2/Cyclin A (Homo sapiens, UniProt P24941); assay: CDK-2 inhibition assay (coupled enzyme assay); type: biochemical
Experimental: To an assay stock buffer solution containing 0.1M HEPES 7.5, 10 mM MgCl2, 1 mM DTT, 25 mM NaCl, 2.5 mM phosphoenolpyruvate, […], […], […], […], and 100 μM peptide ([…], American Peptide, Sunnyvale, Calif.) was added a DMSO solution of a compound of the present invention to a final concentration of 30 μM.
The Ki values were determined from the rate data as a function of inhibitor concentration.

T1 sequence (P49841 whole entry, species assumed, the tested form may be a part): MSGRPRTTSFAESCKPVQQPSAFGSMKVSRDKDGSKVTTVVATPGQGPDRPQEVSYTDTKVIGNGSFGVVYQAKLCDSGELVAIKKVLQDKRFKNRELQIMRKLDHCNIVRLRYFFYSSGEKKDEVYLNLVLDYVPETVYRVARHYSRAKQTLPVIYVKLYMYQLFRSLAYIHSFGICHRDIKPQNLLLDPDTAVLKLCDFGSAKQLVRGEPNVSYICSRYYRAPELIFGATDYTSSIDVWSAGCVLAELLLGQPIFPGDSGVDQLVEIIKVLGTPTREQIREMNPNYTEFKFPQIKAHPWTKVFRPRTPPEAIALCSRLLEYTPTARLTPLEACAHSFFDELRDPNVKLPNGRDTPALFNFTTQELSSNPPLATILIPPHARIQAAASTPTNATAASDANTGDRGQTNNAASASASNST

| Structure (SMILES) | Ki (GSK-3β (AA 1–420)) [nM] | Ki (ERK1) [nM] | Ki (ERK2) [nM] | found to inhibit Aurora-2 (Aurora-2) | IC50 [1] [nM] | Ki (CDK-2/Cyclin A) [nM] |
| --- | --- | --- | --- | --- | --- | --- |
| Cc1cccc(C(CO)NC(=O)c2cc(-c3nc(NC4CC4)ncc3C)c[nH]2)c1 (stereo not shown) [III-a-205, 4–1(2-Cyclopropylamino-5-methyl-pyrimidin-4-yl)-1H-pyrrole-2-carboxylic acid (2-hydroxy-1-m-tolyl-ethyl)-amide] | 100 to 1000 | < 100 | < 100 | – | – | – |
| Cc1cnc(Nc2ccc3c(c2)OCO3)nc1-c1c[nH]c(C(=O)NC(CO)c2ccccc2)c1 (stereo not shown) [III-a-139, 4-[2-(Benzo[1,3]dioxol-5-ylamino)-5-methyl-pyrimidin-4-yl]-1H-pyrrole-2-carboxylic acid (2-hydroxy-1-phenyl-ethyl)-amide] | < 100 | – | < 100 | found to inhibit Aurora-2 | < 100 | – |
| CCNc1ncc(C)c(-c2c[nH]c(C(=O)N[C@H](CO)c3ccccc3)c2)n1 [III-a-117, 4-(2-Ethylamino-5-methyl-pyrimidin-4-yl)-1H-pyrrole-2-carboxylic acid (2-hydroxy-1-phenyl-ethyl)-amide] | < 100 | – | < 100 | found to inhibit Aurora-2 | – | 1000 to 20000 |
| Cc1cnc(N[C@H](CO)c2ccccc2)nc1-c1c[nH]c(C(=O)N[C@H](CO)c2ccccc2)c1 [III-a-155, 4-[2-(2-Hydroxy-1-(S)-phenyl-ethylamino)-5-methyl-pyrimidin-4-yl]-1H-pyrrole-2-carboxylic acid (2-hydroxy-1-(S)-phenyl-ethyl)-amide] | 100 to 1000 | – | < 100 | – | – | 100 to 1000 |
| Cc1cnc(NCc2ccccc2)nc1-c1c[nH]c(C(=O)NC(CO)c2ccccc2)c1 (stereo not shown) [III-a-150, 4-(2-Benzylamino-5-methyl-pyrimidin-4-yl)-1H-pyrrole-2-carboxylic acid (2-hydroxy-1-phenyl-ethyl)-amide] | 100 to 1000 | – | < 100 | – | – | 100 to 1000 |
| Cc1cnc(NC2CC2)nc1-c1c[nH]c(C(=O)NC(CO)c2cccc(Cl)c2)c1 (stereo not shown) [III-a-204, 4-(2-Cyclopropylamino-5-methyl-pyrimidin-4-yl)-1H-pyrrole-2-carboxylic acid [1-(3-chloro-phenyl)-2-hydroxy-ethyl]-amide] | – | < 100 | < 100 | – | – | – |
| Cc1cnc(NC2(CO)CC2)nc1-c1c[nH]c(C(=O)NC(CO)c2ccccc2)c1 (stereo not shown) [III-a-174, 4-[2-(1-Hydroxymethyl-cyclopropylamino)-5-methyl-pyrimidin-4-yl]-1H-pyrrole-2-carboxylic acid (2-hydroxy-1-phenyl-ethyl)-amide] | < 100 | – | < 100 | – | – | 100 to 1000 |
| Cc1cnc(NCC2CC2)nc1-c1c[nH]c(C(=O)NC(CO)c2ccccc2)c1 (stereo not shown) [III-a-159, 4-[2-(Cyclopropylmethyl-amino)-5-methyl-pyrimidin-4-yl]-1H-pyrrole-2-carboxylic acid (2-hydroxy-1-phenyl-ethyl)-amide] | < 100 | – | < 100 | – | – | 1000 to 20000 |
| Cc1cnc(Nc2ccc(OCc3ccccc3)cc2)nc1-c1c[nH]c(C(=O)NC(CO)c2ccccc2)c1 (stereo not shown) [III-a-152, 4-[2-(4-Benzyloxy-phenylamino)-5-methyl-pyrimidin-4-yl]-1H-pyrrole-2-carboxylic acid (2-hydroxy-1-phenyl-ethyl)-amide] | < 100 | – | < 100 | – | – | < 100 |
| Cc1cnc(Nc2cccc(F)c2)nc1-c1c[nH]c(C(=O)NC(CO)c2ccccc2)c1 (stereo not shown) [III-a-136, 4-[2-(3-Fluoro-phenylamino)-5-methyl-pyrimidin-4-yl]-1H-pyrrole-2-carboxylic acid (2-hydroxy-1-phenyl-ethyl)-amide] | < 100 | – | – | found to inhibit Aurora-2 | < 100 | – |
| Cc1cnc(Nc2cccc(OCc3ccccc3)c2)nc1-c1c[nH]c(C(=O)NC(CO)c2ccccc2)c1 (stereo not shown) [III-a-141, 4-[2-(3-Benzyloxy-phenylamino)-5-methyl-pyrimidin-4-yl]-1H-pyrrole-2-carboxylic acid (2-hydroxy-1-phenyl-ethyl)-amide] | < 100 | – | < 100 | found to inhibit Aurora-2 | – | – |
| Cc1cnc(Nc2cccc(O)c2)nc1-c1c[nH]c(C(=O)NC(CO)c2ccccc2)c1 (stereo not shown) [III-a-138, 4-[2-(3-Hydroxy-phenylamino)-5-methyl-pyrimidin-4-yl]-1H-pyrrole-2-carboxylic acid (2-hydroxy-1-phenyl-ethyl)-amide] | < 100 | – | – | found to inhibit Aurora-2 | – | – |
| Cc1cnc(Nc2cccc(C(F)(F)F)c2)nc1-c1c[nH]c(C(=O)NC(CO)c2ccccc2)c1 (stereo not shown) [III-a-149, 4-[5-Methyl-2-(3-trifluoromethyl-phenylamino)-pyrimidin-4-yl]-1H-pyrrole-2-carboxylic acid (2-hydroxy-1-phenyl-ethyl)-amide] | < 100 | – | < 100 | – | – | < 100 |
| Cc1cnc(NC2CC2)nc1-c1c[nH]c(C(=O)N[C@H](CO)c2ccccc2)c1 [III-a-162, 4-(2-Cyclopropylamino-5-methyl-pyrimidin-4-yl)-1H-pyrrole-2-carboxylic acid (2-hydroxy-1-(S)-phenyl-ethyl)-amide] | < 100 | – | < 100 | – | – | 100 to 1000 |
| Cc1cnc(Nc2ccccc2)nc1-c1c[nH]c(C(=O)NC(CO)c2ccccc2)c1 (stereo not shown) [III-a-116, 4-(5-Methyl-2-phenylamino-pyrimidin-4-yl)-1H-pyrrole-2-carboxylic acid (2-hydroxy-1-phenyl-ethyl)-amide] | – | – | – | found to inhibit Aurora-2 | – | – |
| Cc1cnc(Nc2ccc(S(N)(=O)=O)cc2)nc1-c1c[nH]c(C(=O)NC(CO)c2ccccc2)c1 (stereo not shown) [III-a-140, 4-[5-Methyl-2-(4-sulfamoyl-phenylamino)-pyrimidin-4-yl]-1H-pyrrole-2-carboxylic acid (2-hydroxy-1-phenyl-ethyl)-amide] | < 100 | – | < 100 | found to inhibit Aurora-2 | – | – |
| Cc1cnc(NC2CC2)nc1-c1c[nH]c(C(=O)NC(CO)c2cccc(C(F)(F)F)c2)c1 (stereo not shown) [III-a-202, 4-(2-Cyclopropylamino-5-methyl-pyrimidin-4-yl)-1H-pyrrole-2-carboxylic acid [2-hydroxy-1-(3-trifluoromethyl-phenyl)-ethyl]-amide] | > 1000 | < 100 | < 100 | – | – | – |
